# Assay: Gelling tendency when the solid dosage form contacts water
# Assay type: physicochemical
# Details: in words
# Description: Linezolid Form I is known from the publication, Brickner S J et al. (J. Med. Chem. 39 (3), 673-679, 1996). U.S. Pat. No. 6,559,305 discloses linezolid Form II. Tablets containing linezolid Form II are known from U.S. Pat. No. 6,514,529. The PCT application WO 05035530 discloses crystalline Form III of linezolid. […]. The gel formation leads to an erratic dissolution of the linezolid from the dosage form. A dosage form should deliver a drug in a reproducible way so that a maximum therapeutic effect can be achieved. An unpredictable release from the dosage form can compromise efficacy. The gelling tendency of linezolid Form III would discourage its formulation into solid dosage forms.
# Without wishing to be bound by any theory, the following explanation is given for mechanisms involved with the solid dosage form of the present invention that provide a reproducible dissolution profile. […]. When linezolid Form III crystal comes in contact with water, the surface of the crystal dissolves and the dissolved linezolid Form III instead of spreading in water tends to stick to the crystal surface to form a gel layer around the crystal. The gel formation around the crystal acts as a barrier impeding further contact with water, which in turn retards the solubilization of linezolid Form III. […]
compound,measurement,value
"CC(=O)NC[C@H]1CN(c2ccc(N3CCOCC3)c(F)c2)C(=O)O1 [Linezolid Form III, (S)—N—[[3-[3-Fluoro-4-(4-morpholinyl)phenyl]-2-oxo-5-oxazolidinyl]methyl]-acetamide]",gelling tendency in contact with water,exhibits a gelling tendency
